From patent US4017488A, “Process for preparing 7β-acylamino-7α-alkoxycephalosporins” (Sankyo Company Limited, priority 1974, dated 1977)
In brackets after ≈: the same amount, converted by molar mass.

Columns and labels:
Format in all cases: cell-based
[1] = tested on: broad range of disease germs; assay: Antimicrobial activities (general statement); details: statement in words
[2] = tested on: Staphylococcus aureus 209p; assay: Minimal inhibitory concentration, I A; details: read-out: Minimal inhibitory concentrations
Excerpt: (§1) Minimal inhibitory concentrations of various microorganisms mcg/ml
*I A: Staphylococcus aureus 209p

[3] = tested on: Staphylococcus aureus (CP and PC resistant); assay: Minimal inhibitory concentration, I B; details: read-out: Minimal inhibitory concentrations
Excerpt: as §1
I B: Staphylococcus aureus (CP and PC resistant)

[4] = tested on: Shigella flexneri Komagome; assay: Minimal inhibitory concentration, III; details: read-out: Minimal inhibitory concentrations
Excerpt: as §1
III: Shigella flexneri Komagome

[5] = tested on: Klebsiella neumoniae 846 (CER resistant); assay: Minimal inhibitory concentration, IV B; details: read-out: Minimal inhibitory concentrations
Excerpt: as §1
IV B: Klebsiella neumoniae 846 (CER resistant)

CO[C@@]1(NC(=O)CSc2nnc[nH]2)C(=O)N2C(C(=O)O)=C(COC(N)=O)CS[C@@H]21 [7β-(1,2,4-triazol-4H-3-yl)thioacetamido-7α-methoxy-3-carbamoyloxymethyl-3-cephem-4-carboxylic acid]
anti-bacterial / antimicrobial activities [1]: excellent anti-bacterial activities against a broad range of disease germs

CO[C@@]1(NC(=O)CSc2nncs2)C(=O)N2C(C(=O)O)=C(CSc3nnnn3C)CS[C@@H]21 [7β-(1,3,4-thiadiazol-2-yl)thioacetamido-7α-methoxy-3-(1-methyl-1H-tetrazol-5-yl)thiomethyl-3-cephem-4-carboxylic acid]
anti-bacterial / antimicrobial activities [1]: excellent anti-bacterial activities against a broad range of disease germs

CO[C@@]1(NC(=O)CSc2nncs2)C(=O)N2C(C(=O)O)=C(COC(C)=O)CS[C@@H]21 [7β-(1,3,4-thiadiazol-2-yl)thioacetamido-7α-methoxy-3-acetoxymethyl-3-cephem-4-carboxylic acid]
anti-bacterial / antimicrobial activities [1]: excellent anti-bacterial activities against a broad range of disease germs

CO[C@@]1(NC(=O)CSc2nncs2)C(=O)N2C(C(=O)O)=C(COC(N)=O)CS[C@@H]21 [7β-(1,3,4-thiadiazol-2-yl)thioacetamido-7α-methoxy-3-carbamoyloxymethyl-3-cephem-4-carboxylic acid]
anti-bacterial / antimicrobial activities [1]: excellent anti-bacterial activities against a broad range of disease germs

CO[C@@]1(NC(=O)CSc2ccon2)C(=O)N2C(C(=O)O)=C(COC(C)=O)CS[C@@H]21 [7β-(3-isoxazolyl)thioacetamido-7α-methoxy-3-acetoxymethyl-3-cephem 4-carboxylic acid]
anti-bacterial / antimicrobial activities [1]: excellent anti-bacterial activities against a broad range of disease germs

CO[C@@]1(NC(=O)COc2ccon2)C(=O)N2C(C(=O)O)=C(CSc3nnnn3C)CS[C@@H]21 [7β-(3-isoxazolyloxy)acetamido-7α-methoxy-3-(1-methyl-1H-tetrazol-5-yl)thiomethyl-3-cephem-4-carboxylic acid]
MIC [2]: 0.2 µg/mL (≈ 0.414 µM) | MIC [3]: 0.8 µg/mL (≈ 1.65 µM) | MIC [4]: 3.1 µg/mL (≈ 6.41 µM) | MIC [5]: > 400 µg/mL | anti-bacterial / antimicrobial activities [1]: excellent anti-bacterial activities against a broad range of disease germs

CO[C@@]1(NC(=O)COc2ccon2)C(=O)N2C(C(=O)O)=C(COC(C)=O)CS[C@@H]21 [7β-(3-isoxazolyloxy)acetamido-7α-methoxy-3-acetoxymethyl-3-cephem-4-carboxylic acid]
anti-bacterial / antimicrobial activities [1]: excellent anti-bacterial activities against a broad range of disease germs

CO[C@@]1(NC(=O)CSc2nnc(C)s2)C(=O)N2C(C(=O)O)=C(CSc3nnnn3C)CS[C@@H]21 [7β-(5-methyl-1,3,4-thiadiazol-2-yl)thioacetamido-7α-methoxy-3-(1-methyl-1H-tetrazol-5-yl)thiomethyl-3-cephem-4-carboxylic acid]
anti-bacterial / antimicrobial activities [1]: excellent anti-bacterial activities against a broad range of disease germs

CO[C@@]1(NC(=O)CSc2nnc(C)s2)C(=O)N2C(C(=O)O)=C(COC(N)=O)CS[C@@H]21 [7β-(5-methyl-1,3,4-thiadiazol-2-yl)thioacetamido-7α-methoxy-3-carbamoyloxymethyl-3-cephem-4-carboxylic acid]
anti-bacterial / antimicrobial activities [1]: excellent anti-bacterial activities against a broad range of disease germs

CO[C@@]1(NC(=O)CSc2ncc[nH]2)C(=O)N2C(C(=O)O)=C(CSc3nnnn3C)CS[C@@H]21 [7β-(imidazol-2-yl)thioacetamido-7α-methoxy-3-(1-methyl-1H-tetrazol-5-yl)thiomethyl-3-cephem-4-carboxylic acid]
anti-bacterial / antimicrobial activities [1]: excellent anti-bacterial activities against a broad range of disease germs

CO[C@@]1(NC(=O)CSc2ncc[nH]2)C(=O)N2C(C(=O)O)=C(COC(C)=O)CS[C@@H]21 [7β-(imidazol-2-yl)thioacetamido-7α-methoxy-3-acetoxymethyl-3-cephem-4-carboxylic acid]
anti-bacterial / antimicrobial activities [1]: excellent anti-bacterial activities against a broad range of disease germs

CO[C@@]1(NC(=O)CSc2ncc[nH]2)C(=O)N2C(C(=O)O)=C(COC(N)=O)CS[C@@H]21 [7β-(imidazol-2-yl)thioacetamido-7α-methoxy-3-carbamoyloxymethyl-3-cephem-4-carboxylic acid]
anti-bacterial / antimicrobial activities [1]: excellent anti-bacterial activities against a broad range of disease germs

CO[C@@]1(NC(=O)CSCN=[N+]=[N-])C(=O)N2C(C(=O)O)=C(COC(C)=O)CS[C@@H]21 [7β-azidomethylthioacetamido-7α-methoxy-3-acetoxymethyl-3-cephem-4-carboxylic acid]
anti-bacterial / antimicrobial activities [1]: excellent anti-bacterial activities against a broad range of disease germs

CO[C@@]1(NC(=O)CSCC#N)C(=O)N2C(C(=O)O)=C(CSc3nnnn3C)CS[C@@H]21 [7β-cyanomethylthioacetamido-7α-methoxy-3-(1-methyl-1H-tetrazol-5-yl)thiomethyl-3-cephem-4-carboxylic acid]
anti-bacterial / antimicrobial activities [1]: excellent anti-bacterial activities against a broad range of disease germs

CO[C@@]1(NC(=O)CSCC#N)C(=O)N2C(C(=O)O)=C(COC(C)=O)CS[C@@H]21 [7β-cyanomethylthioacetamido-7α-methoxy-3-acetoxymethyl-3-cephem-4-carboxylic acid]
anti-bacterial / antimicrobial activities [1]: excellent anti-bacterial activities against a broad range of disease germs

CO[C@@]1(NC(=O)CSCC#N)C(=O)N2C(C(=O)O)=C(COC(N)=O)CS[C@@H]21 [7β-cyanomethylthioacetamido-7α-methoxy-3-carbamoyloxymethyl-3-cephem-4-carboxylic acid]
anti-bacterial / antimicrobial activities [1]: excellent anti-bacterial activities against a broad range of disease germs

C#CCSCC(=O)N[C@]1(OC)C(=O)N2C(C(=O)O)=C(CSc3nnnn3C)CS[C@@H]21 [7β-propargylthioacetamido-7α-methoxy-3-(1-methyl-1H-tetrazol-5-yl)thiomethyl-3-cephem-4-carboxylic acid]
anti-bacterial / antimicrobial activities [1]: excellent anti-bacterial activities against a broad range of disease germs

C#CCSCC(=O)N[C@]1(OC)C(=O)N2C(C(=O)O)=C(COC(C)=O)CS[C@@H]21 [7β-propargylthioacetamido-7α-methoxy-3-acetoxymethyl-3-cephem-4-carboxylic acid]
anti-bacterial / antimicrobial activities [1]: excellent anti-bacterial activities against a broad range of disease germs

C#CCSCC(=O)N[C@]1(OC)C(=O)N2C(C(=O)O)=C(COC(N)=O)CS[C@@H]21 [7β-propargylthioacetamido-7α-methoxy-3-carbamoyloxymethyl-3-cephem-4-carboxylic acid]
anti-bacterial / antimicrobial activities [1]: excellent anti-bacterial activities against a broad range of disease germs
